# Measured values published in article PMC3412276 (Molecular Microbiology, 2012).
# Target: T1, TbPMI (phosphomannose isomerase) (Trypanosoma brucei, UniProt Q381V7)
# T1 construct: gene Tb11.01.6410
# T1 sequence (Q381V7 1-409): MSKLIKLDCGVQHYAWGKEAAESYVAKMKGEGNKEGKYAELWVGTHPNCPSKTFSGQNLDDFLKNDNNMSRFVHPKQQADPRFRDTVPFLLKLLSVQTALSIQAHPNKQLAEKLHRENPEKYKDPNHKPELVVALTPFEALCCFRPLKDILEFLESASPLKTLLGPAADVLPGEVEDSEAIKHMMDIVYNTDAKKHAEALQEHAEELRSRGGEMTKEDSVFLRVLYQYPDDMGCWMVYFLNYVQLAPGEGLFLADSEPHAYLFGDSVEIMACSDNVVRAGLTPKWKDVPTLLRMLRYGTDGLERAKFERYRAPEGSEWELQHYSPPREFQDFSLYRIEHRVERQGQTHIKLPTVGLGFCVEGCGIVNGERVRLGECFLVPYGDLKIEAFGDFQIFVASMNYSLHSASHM
# Assay: HPAEC with pulsed amperiometric detection
# Format: biochemical
# Conditions: 0.25 mM sugar-6P, 2 mM bis-tris propane pH 7.3, 2.5 mM MgCl2, 37°C, 15 min
SMILES,HPAEC with pulsed amperiometric detection (converted to Man-6P),HPAEC with pulsed amperiometric detection (converted to Fru-6P)
O=P(O)(O)OC[C@H]1OC(O)(CO)[C@@H](O)[C@@H]1O (some centres unmarked) [Fru-6P],"to be able to convert Man-6P to Fru-6P and Fru-6P to Man-6P, as expected",–
O=P(O)(O)OC[C@H]1OC(O)[C@@H](O)[C@@H](O)[C@@H]1O (some centres unmarked) [Man-6P],–,"to be able to convert Man-6P to Fru-6P and Fru-6P to Man-6P, as expected"
